The assay relates to IL-8 secretion induced by LPS in peripheral blood neutrophils. Description: Inhibition of IL-8 secretion induced by LPS in isolated peripheral blood neutrophils (ELISA). Format: cell-based. The note with it: Homo sapiens, Neutrophil; for inhibition at 10 pM: single agent at 0.01 nM. The protocol: 5 Healthy subjects were included for leukocyte experiments. Pulmonary function tests (forced spirometry) and arterial blood gas measurements were performed during the days prior to sample.
Neutrophils were isolated from peripheral blood of healthy volunteers according to standard procedures established in the laboratory (Milara J et al., Respiration 2012; 83, 147-158).
Isolated neutrophils were incubated with different drugs (MABA compound, mometasone or fluticasone) or vehicle for 30 minutes before incubation with LPS (1 mcg/mL) (Lipopolysaccharide, a representative stimulus as inflammatory mediator) for 6 hours in standard cell culture conditions (37° C. and 5% CO2). Supernatant were collected to measure IL-8 (the inflammatory marker).
IL-8 (Interleukin-8) was determined by ELISA according to the standard procedure.
Data was presented as mean±SEM (see FIG. 1 and FIG. 2). Statistical analysis of results was carried out by analysis of variance (ANOVA) followed by Bonferroni test, by Student's t test, or by non-parametric tests as appropriate (GraphPad Software Inc, San Diego, Calif., USA). Significance was accepted when P<0.05.

Setting [1] is: 30 min pre-incubation, LPS 1 mcg/mL 6 h, neutrophils from healthy subjects (5 volunteers in triplicate), Table 1.

Usually inhibition stands for the relative decrease from the control value, in per cent. High values mean strong suppression, low ones little suppression. In the case of `CN(CCCn1nnc2cc(CNC[C@H](O)c3ccc(O)c4[nH]c(=O)ccc34)ccc21)[C@H]1CC[C@H](OC(=O)C(O)(c2cccs2)c2cccs2)CC1` [Cpd 2, Trans-4-[{3-[5-({[(2R)-2-hydroxy-2-(8-hydroxy-2-oxo-1,2-dihydroquinolin-5-yl)ethyl]amino}methyl)-1H-1,2,3-benzotriazol-1-yl]propyl}(methyl)amino]cyclohexyl hydroxy(di-2-thienyl)acetate], the inhibition at 10 pM stood at 4.17% under setting [1] and 4.17% (LPS-induced IL-8 secretion, neutrophils from healthy subjects, Table 2). For the compound `C[C@@H]1C[C@H]2[C@@H]3CCC4=CC(=O)C=C[C@]4(C)[C@@]3(Cl)[C@@H](O)C[C@]2(C)[C@@]1(O)C(=O)CCl` [Mometasone, mometasone], the inhibition at 10 pM under setting [1] amounted to 2.85%.

The compound `C[C@@H]1C[C@H]2[C@@H]3C[C@H](F)C4=CC(=O)C=C[C@]4(C)[C@@]3(F)[C@@H](O)C[C@]2(C)[C@@]1(O)C(=O)SCF` [Fluticasone, fluticasone] gave an inhibition at 0.0001 µM (single agent at 0.1 nM, LPS-induced IL-8 secretion, neutrophils from healthy subjects, Table 2) of 10.2%.

The record behind these values is US10456390B2, “Combinations comprising MABA compounds and corticosteroids” (ALMIRALL, S.A., priority 2013, dated 2019).
